Data: ChEMBL document CHEMBL4316605, “3-Acyltetramic acids as a novel class of inhibitors for human kallikreins 5 and 7” (Bioorg Med Chem Lett, 2019)

How the values were obtained:
[1] = molecular target: Kallikrein-5 (Homo sapiens) (UniProt Q9Y337); assay: Inhibition of human KLK5 assessed as residual enzyme activity at 10 uM
[2] = molecular target: T1, Kallikrein-7 (Homo sapiens, UniProt P49862); assay: Inhibition of human KLK7 assessed as residual enzyme activity at 10 uM
Target sequence in this assay (P49862 30-253 limits assumed): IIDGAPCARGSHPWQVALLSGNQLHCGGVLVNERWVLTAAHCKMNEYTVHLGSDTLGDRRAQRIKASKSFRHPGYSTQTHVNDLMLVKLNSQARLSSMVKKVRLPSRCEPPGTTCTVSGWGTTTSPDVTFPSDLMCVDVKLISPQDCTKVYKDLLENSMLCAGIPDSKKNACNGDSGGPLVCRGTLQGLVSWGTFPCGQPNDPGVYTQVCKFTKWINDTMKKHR

[3] = molecular target: T2, Kallikrein-5 (Homo sapiens, UniProt Q9Y337); assay: Inhibition of human KLK5 assessed as reduction in enzyme activity
T2 sequence (Q9Y337 whole entry): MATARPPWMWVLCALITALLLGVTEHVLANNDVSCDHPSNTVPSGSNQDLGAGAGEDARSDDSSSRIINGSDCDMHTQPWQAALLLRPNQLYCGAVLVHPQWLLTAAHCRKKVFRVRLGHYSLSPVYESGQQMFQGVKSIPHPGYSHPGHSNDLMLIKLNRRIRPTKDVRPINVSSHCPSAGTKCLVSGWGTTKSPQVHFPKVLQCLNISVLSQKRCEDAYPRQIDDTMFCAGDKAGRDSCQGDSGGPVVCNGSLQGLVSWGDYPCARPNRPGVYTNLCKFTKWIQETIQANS

[4] = molecular target: T1, Kallikrein-7; assay: Inhibition of human KLK7 assessed as reduction in enzyme activity
Target sequence in this assay (P49862 whole entry): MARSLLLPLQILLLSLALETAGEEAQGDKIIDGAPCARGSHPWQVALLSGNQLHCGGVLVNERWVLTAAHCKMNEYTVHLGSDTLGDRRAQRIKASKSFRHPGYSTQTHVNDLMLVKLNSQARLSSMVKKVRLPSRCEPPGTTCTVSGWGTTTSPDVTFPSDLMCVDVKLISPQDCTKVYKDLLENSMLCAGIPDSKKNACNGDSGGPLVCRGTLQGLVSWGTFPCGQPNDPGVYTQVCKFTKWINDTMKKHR

[5] = molecular target: T3, Trypsin (Homo sapiens, UniProt P07477+P07478+P35030); assay: Inhibition of trypsin (unknown origin) assessed as residual enzyme activity at 10 uM; type: protein assay
[6] = molecular target: T3, Trypsin; assay: Inhibition of trypsin (unknown origin) assessed as reduction in enzyme activity; type: protein assay
[7] = molecular target: Chymotrypsin (Homo sapiens) (UniProt Q99895+P17538+P40313+Q6GPI1); assay: Inhibition of Chymotrypsin (unknown origin) assessed as residual enzyme activity at 10 uM; type: protein assay

Row | Activity [1] | Activity [2] | IC50 [3] | IC50 [4] | Activity [5] | IC50 [6] | Activity [7] | Structure (SMILES)
1 | 80% | 70% | – | – | – | – | – | CC(C)C/C(O)=C1/C(=O)[C@H](Cc2ccccc2)N(C(=O)OC(C)(C)C)C1=O
2 | 50% | 50% | 14000 nM | 14000 nM | – | – | – | CCCCC/C=C\C/C=C\CCCCCCC/C(O)=C1/C(=O)[C@H](Cc2ccccc2)N(C(=O)OC(C)(C)C)C1=O
3 | 80% | 50% | – | 11000 nM | – | – | – | CC/C(O)=C1/C(=O)[C@H](Cc2ccccc2)N(C(=O)OC(C)(C)C)C1=O
4 | 0% | 0% | 3600 nM | 2300 nM | 10% | 2100 nM | 98% | CCCCCCCCCCC/C(O)=C1/C(=O)[C@H](Cc2ccccc2)N(C(=O)OC(C)(C)C)C1=O
5 | 0% | 0% | 8000 nM | 2500 nM | – | – | – | CCCC(C)/C(O)=C1/C(=O)[C@H](Cc2ccccc2)N(C(=O)OC(C)(C)C)C1=O (some centres not stated)
6 | 0% | 0% | 1800 nM | 2500 nM | 5% | 2300 nM | 87% | CCCCCCCC/C=C\CCCCCCC/C(O)=C1/C(=O)[C@H](Cc2ccccc2)N(C(=O)OC(C)(C)C)C1=O
7 | 0% | 0% | 17000 nM | 2800 nM | – | – | – | CCCCCCCCCCCCCCCCC/C(O)=C1/C(=O)[C@H](Cc2ccccc2)N(C(=O)OC(C)(C)C)C1=O
8 | 0% | 0% | 4900 nM | 1700 nM | 20% | 2400 nM | 90% | CCCCCCCCCCCCC/C(O)=C1/C(=O)[C@H](Cc2ccccc2)N(C(=O)OC(C)(C)C)C1=O
9 | 0% | 0% | 12000 nM | 2900 nM | – | – | – | CCCCCCCCCCCCCCC/C(O)=C1/C(=O)[C@H](Cc2ccccc2)N(C(=O)OC(C)(C)C)C1=O
